The values below come from ChEMBL document CHEMBL4130461, “New chemotype of selective and potent inhibitors of human delta 24-dehydrocholesterol reductase” (Eur J Med Chem, 2017).

One may read the IC50 as the concentration that gives 50% inhibition.

Series [1] deals with HL-60. The series is described as follows: Induction of sterol accumulation in human HL60 cells assessed as desmosterol accumulation at 1 uM incubated for 24 hrs by GC-MS analysis. In kind it is functional, cell-based.
Series [2] has as its system HL-60. The series is described as follows: Induction of sterol accumulation in human HL60 cells assessed as desmosterol accumulation at 50 uM incubated for 24 hrs by GC-MS analysis. It is filed as functional, cell-based.
In series [3] the test system is HL-60. The series can be described thus: cells. As to conditions: Homo sapiens.
Description: Cytotoxicity in human HL60 cells by MTT assay
Series [4] deals with HL-60. The series is described as follows: Cytotoxicity in human HL60 cells at 50 uM by MTT assay. It is filed as cell-based. As to conditions: hl-60, 50 µM. For orientation: Tetrazolium dyes change colour on reduction, which living cells bring about.

Active and inactive are the calls of the source. The calls are words filed in the database; no cut-off is given here.

As for `CCC(=O)NC[C@@H](C)[C@H]1CC[C@H]2C3=CC[C@H]4C[C@@H](OC(C)=O)CC[C@]4(C)[C@H]3CC[C@]12C`, the result in the series with HL-60 [1] and in the series on HL-60 [2] was Active. Also, the IC50 in the series on HL-60 [3] is more than 50 µM.

Consider `CC(=O)O[C@H]1CC[C@@]2(C)[C@@H](CC=C3[C@@H]2CC[C@]2(C)[C@@H]([C@H](C)CN)CC[C@@H]32)C1`, for which the result with HL-60 [1] and in the series with HL-60 [2] was Active. The compound further gave an IC50 in the series on HL-60 [3] of more than 50 µM.

Consider `CC(=O)O[C@H]1CC[C@@]2(C)[C@@H](CC=C3[C@@H]2CC[C@]2(C)[C@@H]([C@H](C)CO)CC[C@@H]32)C1`, for which the result with HL-60 [1] and in the series with HL-60 [2] was Active. Moreover, the IC50 in the series on HL-60 [3] was more than 50 µM.

For `C/C=C/C(=O)OC[C@@H](C)[C@H]1CC[C@H]2C3=CC[C@H]4C[C@@H](OC(C)=O)CC[C@]4(C)[C@H]3CC[C@]12C`, the result in the series on HL-60 [1] was Active. In addition, in the series on HL-60 [4], the Activity result is “Toxic”. Also, the IC50 in the series on HL-60 [3] was 10 µM.

As to `C[C@H](/C=C/c1cc[n+](C)cc1)[C@H]1CC[C@H]2C3=CC[C@H]4C[C@@H](O)CC[C@]4(C)[C@H]3CC[C@]12C.[I-]`, in the series with HL-60 [1], the outcome was Active. For the same compound, in the series on HL-60 [4], the Activity result is reported as “Toxic”. The same compound gave an IC50 in the series on HL-60 [3] of 3 µM.

As for `C/C=C(\C)C(=O)OC[C@@H](C)[C@H]1CC[C@H]2C3=CC[C@H]4C[C@@H](OC(C)=O)CC[C@]4(C)[C@H]3CC[C@]12C`, the result in the series with HL-60 [1] and with HL-60 [2] was Active. The compound further came in with an IC50 with HL-60 [3] of more than 50 µM.

As to `CCC(=O)N(C)C[C@@H](C)[C@H]1CC[C@H]2C3=CC[C@H]4C[C@@H](OC(C)=O)CC[C@]4(C)[C@H]3CC[C@]12C`, the result in the series on HL-60 [1] was Active. The Activity result with HL-60 [4] is “Toxic”. In the series on HL-60 [3], this compound came in with an IC50 of 20 µM.

`CONC(=O)[C@@H](C)[C@H]1CC[C@H]2C3=CC[C@H]4C[C@@H](OC(C)=O)CC[C@]4(C)[C@H]3CC[C@]12C`: the outcome with HL-60 [1] and with HL-60 [2] was Active. The IC50 in the series on HL-60 [3] was more than 50 µM.

`C[C@H](CO)[C@H]1CC[C@H]2[C@@H]3CC=C4C[C@@H](O)CC[C@]4(C)[C@H]3CC[C@]12C`: the result with HL-60 [1] and with HL-60 [2] was Active. In the series with HL-60 [3], this compound returned an IC50 of more than 50 µM.

As for `CNC(=O)[C@@H](C)[C@H]1CC[C@H]2C3=CC[C@H]4C[C@@H](OC(C)=O)CC[C@]4(C)[C@H]3CC[C@]12C`, the outcome in the series with HL-60 [1] and in the series with HL-60 [2] was Active. Besides, in the series on HL-60 [3], the IC50 was more than 50 µM.

For the compound `C[C@H](CCC(=O)N(C)C)[C@H]1CC[C@H]2[C@@H]3CC=C4C[C@@H](O)CC[C@]4(C)[C@H]3CC[C@]12C`, the result in the series with HL-60 [1] and with HL-60 [2] was Active. For the same compound, the IC50 with HL-60 [3] was more than 50 µM.

Turning to `CCN(CC)CCO[C@H]1CC[C@@]2(C)C(=CC[C@@H]3[C@@H]2CC[C@]2(C)C(=O)CC[C@@H]32)C1`, the IC50 with HL-60 [3] was more than 50 µM.

Take `CCCC(=O)N(C)C[C@@H](C)[C@H]1CC[C@H]2C3=CC[C@H]4C[C@@H](OC(C)=O)CC[C@]4(C)[C@H]3CC[C@]12C`: the result in the series on HL-60 [1] was Active. Besides, the Activity entry with HL-60 [4] is given as “Toxic”. In addition, in the series with HL-60 [3], the IC50 was found to be 13 µM.

Regarding `CC(=O)O[C@H]1CC[C@@]2(C)[C@@H](CC=C3[C@@H]2CC[C@]2(C)[C@@H]([C@H](C)COC(=O)CN(C)C)CC[C@@H]32)C1`, the outcome in the series with HL-60 [1] was Active. Moreover, the Activity entry with HL-60 [4] is “Toxic”. This compound registered an IC50 with HL-60 [3] of 21 µM.
